Measured values as given in patent US5637591A, “Antimicrobial and anticollagenase activity of phenazine-5, 10-dioxide and derivatives” (Fuji ImmunoPharmaceuticals Corp., priority 1995, dated 1997).
Converted amounts (≈) assume the structure as drawn. Like-named read-outs stand apart in the source and are kept apart here.

Columns and labels:
[1] = tested on: Porphyromonas gingivalis 2561; assay: anaerobic liquid culture growth inhibition, OD 650 nm; assay type: cell-based; settings: Porphyromonas gingivalis, 2561; anaerobic overnight, OD 650 nm; read-out: IC50 Porphyromonas gingivalis 2561
Bacteroides fragilis = assay: as above; assay type: cell-based; settings: anaerobic overnight, OD 650 nm, read-out: IC50 Bacteroides fragilis
Proteus mirabilis = assay: IC90 in plating medium, 24-well plates; assay type: cell-based
Description: (§1) Drug solutions were mixed with plating medium to produce a range of final drug concentrations. Media with drug were plated in the wells of 24-well plates. A drop of bacterial suspension containing 2-5×10^2 CFU was placed on each well. Plates were incubated overnight at 37° C.
(§2) The concentration of the compound necessary to reduce viability of each micro-organism by 90% (inhibitory concentration 90%=IC90) is reported in Table 3 as μg/ml. Bacterial strains are listed in order of decreasing susceptibility to 2-aminophenazine-5,10-dioxide.

Serratia marsescens = assay: IC90 in plating medium, 24-well plates; assay type: cell-based
Description: as §1, §2

Corynebacterium xerosis = assay: IC90 in plating medium, 24-well plates; assay type: cell-based
Description: as §1, §2

Bacillus cereus = assay: IC90 in plating medium, 24-well plates; assay type: cell-based; settings: 90% inhibition of growth, overnight 37° C.
Description: as §1, §2

E. coli (strain B) = assay: IC90 in plating medium, 24-well plates; assay type: cell-based; settings: Escherichia coli, rfa
Description: as §1, §2

Pseudomonas aeruginosa = assay: IC90 in plating medium, 24-well plates; assay type: cell-based
Description: as §1, §2

Klebsiella pneumoniae = assay: IC90 in plating medium, 24-well plates; assay type: cell-based
Description: as §1, §2

Enterobacter cloacae = assay: IC90 in plating medium, 24-well plates; assay type: cell-based
Description: as §1, §2

Streptococcus faecalis = assay: IC90 in plating medium, 24-well plates; assay type: cell-based; settings: Enterococcus faecalis
Description: as §1, §2

Staphylococcus aureus = assay: IC90 in plating medium, 24-well plates; assay type: cell-based
Description: as §1, §2

Micrococcus luteus = assay: IC90 in plating medium, 24-well plates; assay type: cell-based
Description: as §1, §2

[2] = tested on: Peptostreptococcus anaerobius; assay: anaerobic liquid culture growth inhibition, OD 650 nm; assay type: cell-based; settings: anaerobic overnight, OD 650 nm, read-out: IC50 Peptostreptococcus anaerobius
[3] = tested on: Porphyromonas gingivalis RB-22D-1; assay: as above; assay type: cell-based; settings: RB22D1, anaerobic overnight, OD 650 nm, read-out: IC50 Porphyromonas gingivalis RB-22D-1
Clostridium perfringens = assay: microbe, parasite or virus in culture; assay type: cell-based; settings: read-out: IC50 Clostridium perfringens
[4] = tested on: Escherichia coli strain DH5α; assay: zone inhibition method on agar plate; assay type: cell-based; settings: Escherichia coli; 10 μl of 1 mg/ml on 3 mm paper disk, overnight 37° C.; radius from center of disk; read-out: E. coli Clear Zone
Description: (§3) Solutions of the agents were tested for activity against Escherichia coli strain DH5α by a zone inhibition method, and against P. gingivalis strain 2561 by addition to plating medium to determine minimum inhibitory concentrations (M/C). For the zone inhibition study, a suspension of E. coli was spread on the surface of an agar plate. A 3 mm diameter paper disk was placed on the seeded agar surface, and 10 μl of solution of each compound formulated at 1 mg/ml was added to the disk. Plates were incubated overnight at 37° C. The radius of the zone of inhibition was measured from the center of the disk to the edge of the E. coli bacterial lawn. For determination of MIC, drug solutions were mixed with plating medium to produce a range of final drug concentrations. Media with drug were plated in the wells of 24-well plates. A drop of bacterial suspension containing 2-5×10^2 CFU P. gingivalis was placed on each well. Plates were incubated 1 week in an anaerobic chamber at 37° C.

[5] = tested on: Fusobacterium necrophorum; assay: anaerobic liquid culture growth inhibition, OD 650 nm; assay type: cell-based; settings: anaerobic overnight, OD 650 nm, read-out: IC50 Fusobacterium necrophorum
[6] = oral bioavailability in rats (AUC versus intravenous); settings: rat, in vivo
Description: The bioavailibility of orally delivered substituted phenazine-5,10-dioxideswas measured because oral delivery also can comprise systemic administration. The bioavailibility was assessed for the phenazine-5,10-dioxide derivative, 2-aminophenazine-5,10-dioxide administered by oral gavage to rats. Vehicles and dose levels are detailed in Table 9. Calculations of bioavailability (F) following oral administration were made based on area under the curve (AUC) calculations and comparsion with intravenous administration.

[7] = tested on: P. gingivalis strain 2561; assay: minimum inhibitory concentration by addition to plating medium; assay type: cell-based; settings: for MIC: Porphyromonas gingivalis, 2561, 168 h, read-out: P. gingivalis MIC; for concentration range of activity against P. gingivalis: molar basis; for activity greater than Tetracycline against P. gingivalis: weight-concentration basis
Description: as §3

Fusobacterium nucleatum = assay: anaerobic liquid culture growth inhibition, OD 650 nm; assay type: cell-based; settings: anaerobic overnight, OD 650 nm, read-out: IC50 Fusobacterium nucleatum
Bacteroides levii = assay: as above; assay type: cell-based; settings: Porphyromonas levii; anaerobic overnight, OD 650 nm; read-out: IC50 Bacteroides levii
P. gingivalis = assay: bone loss after oral colonization with P. gingivalis in mice, systemic administration; assay type: in vivo, BALB/c mice; settings: infected mice, IP daily; 25 d (2-methylphenazine-5,10-dioxide) or 40 d (Tetracycline)
Description: An animal model for testing the antimicrobial activity of the invention against P. gingivalis was conducted by inducing oral colonization of the microbe in BALB/c mice. Drug (2-methylphenazine-5,10-dioxide or Tetracycline) or control (2.5% cyclodextran) was administered intraperitoneally once each day for 25 days (2-methylphenazine-5,10-dioxide) or 40 days (Tetracycline). On the day following the last dose administration, the rear molars of the mice were swabbed and the swabs incubated in a growth medium to assess the presence of P. gingivalis. Mice were then sacrificed and jaw bones harvested for evaluation of bone loss.

[8] = complete inhibition of growth, 1 week anaerobic, 37° C.

Work on `Nc1ccc2c(c1)[n+]([O-])c1ccccc1[n+]2[O-]` [2-aminophenazine-5,10-dioxide] yielded an IC50 [1] of 0.04 µg/mL (≈ 0.176 µM), an IC50 (Bacteroides fragilis) of 1 µg/mL (≈ 4.4 µM) and an IC90 (Proteus mirabilis) of 5 µg/mL (≈ 22 µM). The IC90 (Serratia marsescens) was 10 µg/mL (≈ 44 µM), the IC90 (Corynebacterium xerosis) was 1.25 µg/mL (≈ 5.5 µM) and the IC90 (Bacillus cereus) was 0.31 µg/mL (≈ 1.36 µM). The IC90 (E. coli (strain B)) was 0.31 µg/mL (≈ 1.36 µM), the IC90 (Pseudomonas aeruginosa) was over 10 µg/mL and the IC90 (Klebsiella pneumoniae) was 10 µg/mL (≈ 44 µM). It also gave an IC90 (Enterobacter cloacae) of over 10 µg/mL, an IC90 (Streptococcus faecalis) of 5 µg/mL (≈ 22 µM) and an IC90 (Staphylococcus aureus) of 0.62 µg/mL (≈ 2.73 µM). For the same compound, the “activity against M. luteus” value (Micrococcus luteus) was “lack of activity”, the IC90 (Micrococcus luteus; Micrococcus luteus) was 10 µg/mL (≈ 44 µM) and the IC50 [2] was 0.06 µg/mL (≈ 0.264 µM). The IC50 [3] was 0.12 µg/mL (≈ 0.528 µM), the IC50 (Clostridium perfringens) was 1 µg/mL (≈ 4.4 µM) and the zone of inhibition at 1000 µg/mL [4] was 32 mm. It also gave an IC50 [5] of 0.03 µg/mL (≈ 0.132 µM), an AUC ([6]; iv, 10 mg/kg, rats, 10 mg/kg IV administration) of 390 ng·h/mL and an AUC ([6]; po, 50 mg/kg, rats, 50 mg/kg oral, 2% Brij35/water) of 1480 ng·h/mL. The bioavailability ([6]; po, 50 mg/kg, rats, 50 mg/kg oral, 2% Brij35/water, compared to 10 mg/kg IV, read-out: F (Bioavailability)) was 76%, the AUC ([6]; po, 50 mg/kg, rats, 50 mg/kg oral, 10% Brij35/Mineral oil) was 2380 ng·h/mL and the bioavailability ([6]; po, 50 mg/kg, rats, 50 mg/kg oral, 10% Brij35/Mineral oil, compared to 10 mg/kg IV, read-out: F (Bioavailability)) was 120%. The AUC ([6]; po, 50 mg/kg, rats, 50 mg/kg oral, 10% Brij35/water) was 1250 ng·h/mL, the bioavailability ([6]; po, 50 mg/kg, rats, 50 mg/kg oral, 10% Brij35/water, compared to 10 mg/kg IV, read-out: F (Bioavailability)) was 64% and the AUC ([6]; po, 50 mg/kg, rats, 50 mg/kg oral, water) was 1740 ng·h/mL. The bioavailability ([6]; po, 50 mg/kg, rats, 50 mg/kg oral, water, compared to 10 mg/kg IV, read-out: F (Bioavailability)) was 89%, the AUC ([6]; po, 60 mg/kg, rats, 60 mg/kg oral, Cremaphor) was 103 ng·h/mL and the bioavailability ([6]; po, 60 mg/kg, rats, 60 mg/kg oral, Cremaphor, compared to 10 mg/kg IV, read-out: F (Bioavailability)) was 4%. The AUC ([6]; po, 100 mg/kg, rats, 100 mg/kg oral, Arlacel 83) was 2630 ng·h/mL, the bioavailability ([6]; po, 100 mg/kg, rats, 100 mg/kg oral, Arlacel 83, compared to 10 mg/kg IV, read-out: F (Bioavailability)) was 67% and the AUC ([6]; po, 100 mg/kg, rats, 100 mg/kg oral, Encapsin CD) was 3520 ng·h/mL. The bioavailability ([6]; po, 100 mg/kg, rats, 100 mg/kg oral, Encapsin CD, compared to 10 mg/kg IV, read-out: F (Bioavailability)) was 90%, the AUC ([6]; po, 100 mg/kg, rats, 100 mg/kg oral, PEG (Polyethyleneglycol)) was 3940 ng·h/mL and the bioavailability ([6]; po, 100 mg/kg, rats, 100 mg/kg oral, PEG (Polyethyleneglycol), compared to 10 mg/kg IV, read-out: F (Bioavailability)) was 100%. For the same compound, the MIC ([7]; MIC on a molar basis) was 0.009 µM, the MIC [7, 8] was 0.002 µg/mL and the “concentration range of activity against P. gingivalis” value [7] was “nanomolar concentration range”. For the same compound, the “activity greater than Tetracycline against P. gingivalis” value [7] was “more than 100 fold”, the IC50 (Fusobacterium nucleatum) was 10 µg/mL (≈ 44 µM) and the IC50 (Bacteroides levii) was 0.03 µg/mL (≈ 0.132 µM).

`Cc1ccc2c(c1)[n+]([O-])c1ccccc1[n+]2[O-]` [2-methylphenazine-5,10-dioxide] gave an IC50 [1] of 0.16 µg/mL (≈ 0.707 µM), an IC50 (Bacteroides fragilis) of 7 µg/mL (≈ 30.9 µM) and an IC50 [2] of 0.2 µg/mL (≈ 0.884 µM). For the same compound, the IC50 [3] was 0.35 µg/mL (≈ 1.55 µM), the IC50 (Clostridium perfringens) was 1 µg/mL (≈ 4.42 µM) and the zone of inhibition at 1000 µg/mL [4] was 19 mm. It also gave an IC50 [5] of 1.5 µg/mL (≈ 6.63 µM), a bioavailability ([6]; po, 80 mg/kg, Rats, 80 mg/kg PO, 10% Cremaphor (Table 8 footnote 1), read-out: F) of about 2% and a bioavailability ([6]; po, 100 mg/kg, Rats, 100 mg/kg PO, 2% Brij 35 (Table 8 footnote 4), read-out: F) of about 100%. For the same compound, the bioavailability ([6]; po, 100 mg/kg, Rats, 100 mg/kg PO, 10% Arlacel 83/Corn Oil (Table 8 footnote 3), read-out: F) was about 37%, the bioavailability ([6]; po, 100 mg/kg, Rats, 100 mg/kg PO, 100% PEG400 (Table 8 footnote 2), read-out: F) was about 50% and the bioavailability ([6]; po, 100 mg/kg, Rats, 100 mg/kg PO, Encapsin CD (Table 8 footnote 2), read-out: F) was about 50%. The MIC ([7]; MIC on a molar basis) was 0.018 µM, the MIC [7, 8] was 0.004 µg/mL and the “concentration range of activity against P. gingivalis” value [7] was “nanomolar concentration range”. For the same compound, the “activity greater than Tetracycline against P. gingivalis” value [7] was “more than 100 fold”, the IC50 (Fusobacterium nucleatum) was over 10 µg/mL and the IC50 (Bacteroides levii) was 1 µg/mL (≈ 4.42 µM). For the same compound, the “effect of treatment on bone loss” value (P. gingivalis) was “reduced the observed bone loss”.
